Reference: patent US5856503A, “Aminoalkyl-substituted benzo-heterocyclic compounds” (Hoffmann-La Roche Inc., priority 1995, dated 1999)
Values after ≈ are worked out from the molar mass of the structure shown. Like-named read-outs stand apart in the source and are kept apart here.

Columns and labels:
[1] = target: T1, human liver microsomal 2,3-oxidosqualene-lanosterol cyclase (OSC) (Homo sapiens, UniProt P48449); experiment: Inhibition of human liver microsomal 2,3-oxidosqualene-lanosterol cyclase (OSC); format: biochemical; conditions: for inhibition at 0.1 µM: 100 nM test substance, 1 hour at 37° C., against controls; for IC50: pH 7.4, 1 hour at 37° C., read-out: IC50 (OSC, conversion of MOS into lanosterol)
T1 construct: Liver microsomes from a healthy volunteer were prepared in sodium phosphate buffer (pH 7.4); from tissue; host or cells: liver microsomes from a healthy human volunteer
T1 sequence (P48449 1-732): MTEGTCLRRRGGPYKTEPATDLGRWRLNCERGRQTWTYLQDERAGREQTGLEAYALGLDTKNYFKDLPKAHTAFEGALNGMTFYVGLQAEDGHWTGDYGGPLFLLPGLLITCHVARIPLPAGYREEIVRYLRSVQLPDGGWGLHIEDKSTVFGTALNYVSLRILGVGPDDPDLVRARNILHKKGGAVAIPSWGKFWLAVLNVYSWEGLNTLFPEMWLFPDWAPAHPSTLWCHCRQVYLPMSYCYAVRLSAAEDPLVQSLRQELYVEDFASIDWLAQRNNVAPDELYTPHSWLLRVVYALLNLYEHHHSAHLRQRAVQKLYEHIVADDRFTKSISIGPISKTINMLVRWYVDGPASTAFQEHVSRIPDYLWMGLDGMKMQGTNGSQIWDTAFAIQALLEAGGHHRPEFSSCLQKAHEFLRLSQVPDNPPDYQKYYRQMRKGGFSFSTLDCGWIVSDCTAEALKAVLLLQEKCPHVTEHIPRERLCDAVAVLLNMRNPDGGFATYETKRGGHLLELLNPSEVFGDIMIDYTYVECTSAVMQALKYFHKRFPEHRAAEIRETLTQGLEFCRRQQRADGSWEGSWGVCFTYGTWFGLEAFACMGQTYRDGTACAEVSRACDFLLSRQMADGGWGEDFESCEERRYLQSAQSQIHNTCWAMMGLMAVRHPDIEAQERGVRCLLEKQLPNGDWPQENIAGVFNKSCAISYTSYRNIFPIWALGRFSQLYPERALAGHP
Method: Inhibition of human liver microsomal 2,3-oxidosqualene-lanosterol cyclase (OSC)
Liver microsomes from a healthy volunteer were prepared in sodium phosphate buffer (pH 7.4). The OSC activity was measured in the same buffer which also contained 1 mM EDTA and 1 mM dithiothreitol. The microsomes were diluted to 0.8 mg/ml protein in cold phosphate buffer. Dry [^14 C]R,S-monooxidosqualene (MOS; 12.8 μCi/mmol) was diluted to 20 nCi/μl with ethanol and mixed with phosphate buffer-1% BSA (Bovine Serum Albumin). A stock solution of 1 mM test substance in DMSO was diluted to the desired concentration with phosphate buffer-1% BSA. 40 μl of microsomes were mixed with 20 μl of the solution of the test substance and the reaction was subsequently started with 20 μl of the [^14 C]R,S-MOS solution. The final conditions were: 0.4 mg/ml of microsomal proteins and […] of [^14 C]R,S-MOS in phosphate buffer, pH 7.4, containing 0.5% albumin, DMSO <0.1% and ethanol <2%, in a total volume of 80 μl.
After 1 hour at 37° C. the reaction was stopped by the addition of 0.6 ml of 10% KOH-methanol, 0.7 ml of water and 0.1 ml of hexane:ether (1:1, v/v) which contained 25 μg of non-radioactive MOS and 25 μg of lanosterol as the carrier. After shaking 1 ml of hexane:ether (1:1, v/v) was added to each test tube, these were again shaken and then centrifuged. The upper phase was transferred into a glass test tube, the lower phase was again extracted with hexane:ether and combined with the first extract. The entire extract was evaporated to dryness with nitrogen, the residue was suspended in 50 μl of hexane:ether and applied to a silica gel plate. Chromatographic separation was effected in hexane:ether (1:1, v/v) as the eluent. […] After drying radioactive MOS and lanosterol were observed on the silica gel plate. The ratio of MOS to lanosterol was determined from the radioactive bands in order to determine the OSC inhibition.
The test was carried out on the one hand with a constant test substance concentration of 100 nM and the percentage OSC inhibition against controls was calculated. In addition, the test was carried out with different test substance concentrations and subsequently the IC50 value was calculated, i.e. the concentration required to reduce the conversion of MOS into lanosterol to 50% of the control value.

[2] = Cholesterol lowering in fat-fed hamsters; format: in vivo, Male golden hamsters; conditions: 200 μmol (about 70-120 mg/kg/day) in diet, 10 days
Method: Cholesterol lowering in fat-fed hamsters
Male golden hamsters kept individually were pre-treated for 7 days with a diet containing grated coconut (40 cal. % fat). The animals were then divided into groups each comprising 5 animals. During the treatment the animals were maintained on the same diet. Each test substance was firstly homogenized in 9 ml of water and subsequently mixed with the milled diet. The controls received only feed converted into a paste with water. The animals were treated for 10 days with a test substance dosage of 200 μmol (about 70-120 mg/kg/day). Blood samples (200 μl) were removed via the jugular vein under light anaesthesia on the last day of the pretreatment and one day after the last administration of test substance. The plasma cholesterol concentration was determined using a colorimetric enzyme method. The plasma lipoproteins were separated by exclusion chromatography (Hennes et al., Science Tools, 36, 1992, 10-12). The total cholesterol was determined in each fraction using a fluorometric enzyme method (Gamble et al., J. Lipid Res., 19, 1978, 1068-1071) in order to calculate the amount of cholesterol in the LDL and HDL fractions. The activity on plasma cholesterol and LDL and HDL cholesterol, expressed in percent of the control animals, for the products of Examples 8a and 12 is reproduced in the following Table: […]

Candida albicans = experiment: Antifungal activity in vitro, C. albicans (microdilution); format: cell-based; conditions: 27° C.
Method: (§1) Antifungal activity in vitro The compounds were tested for antifungal activity against Candida albicans, Cryptococcus neoformans and Aspergillus fumigatus using a microdilution method on microtitre plates (96 wells per plate). Yeast supplemented with 1% glucose and 0.25% di-potassium phosphate was used for the three fungal strains. The fungal cells were inoculated at 3×10^4 CFU (Colony Forming Unit) in […] of medium per well. The medium contained increasing concentrations of test substance. After incubation at 27° C. for 24 or 48 hours the turbidity in each well was measured by a microtitre plate reader. The growth inhibition was calculated in comparison to (without test substance). The IC50 value given in the following Table is the concentration of test substance at which the growth is inhibited by 50%.

Cryptococcus neoformans = experiment: Antifungal activity in vitro, C. neoformans (microdilution); format: cell-based; conditions: 48 hours, 27° C., read-out: IC50 for C. neoformans after 48 hours (growth inhibition)
Method: as §1

Aspergillus fumigatus = experiment: Antifungal activity in vitro, A. fumigatus (microdilution); format: cell-based; conditions: 48 hours, 27° C., read-out: IC50 for A. fumigatus after 48 hours (growth inhibition)
Method: as §1

[3] = 24 hrs., read-out: IC50 for C. albicans after 24 hrs. (growth inhibition)
[4] = 48 hrs., read-out: IC50 for C. albicans after 48 hrs. (growth inhibition)

inhibition at 0.1 µM [1]	IC50 [1]	IC50 (Candida albicans; [3])	IC50 (Candida albicans; [4])	IC50 (Cryptococcus neoformans)	IC50 (Aspergillus fumigatus)	Compound	HDL cholesterol (plasma, percent of control animals) [2]	LDL cholesterol (plasma, percent of control animals) [2]	Total cholesterol (plasma, percent of control animals) [2]
96%	3.3 nM	< 0.32 µg/mL	3.6 µg/mL (≈ 7.84 µM)	< 0.32 µg/mL	3.9 µg/mL (≈ 8.49 µM)	C=CCN(C)CCCCCCOc1ccc2c(-c3ccc(Br)cc3)nsc2c1 [Example 1, allyl-[6-[3-(4-bromo-phenyl)-benzo[d]isothiazol-6-yloxy]-hexyl]-methyl-amine]	-27%	-36%	-33%
98%	1.6 nM	< 0.32 µg/mL	1.4 µg/mL (≈ 3.09 µM)	< 0.32 µg/mL	1.9 µg/mL (≈ 4.19 µM)	CN(CCCCCCOc1ccc2c(-c3ccc(Br)cc3)nccc2c1)C1CC1 [Example 24, [6-[1-(4-bromo-phenyl)-isoquinolin-6-yloxy]-hexyl]-cyclopropyl-methyl-amine]	–	–	–
